Reference: patent US20230416205A1, “COMPOUNDS, COMPOSITIONS, AND METHODS” (Denali Therapeutics Inc, priority 2020, published 2023)
Where two headings read alike, the source gives them in different places.

System: NLRP3
Assay: IL-1β secretion assay in PMA-differentiated, LPS/nigericin-stimulated THP-1 cells (384-well, ELISA read-out)
Format: cell-based, human
Settings: Homo sapiens
In short: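 THP-1 cells differentiated with PMA (5 ng/mL, 40 h), primed in serum-free medium with 25 ng/mL LPS for 2 h, treated with compounds 1 h (0.5% DMSO), then stimulated with nigericin for 2 h at 37 °C. Supernatant IL-1β measured by ELISA; responses normalized to LPS+5 μM nigericin and LPS-only controls.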

[1] = THP-1, IL-1β secretion, PMA-differentiated THP-1 cells, LPS then nigericin stimulation, ELISA read at 450 nm, read-out: Activity
[2] = THP-1, Table 4, IL-1β secretion, LPS/nigericin-stimulated THP-1 cells, read-out: IC50

Row | Compound | IC50 [1] [µM] | IC50 [2] [µM]
1 | CS(=O)(=O)c1ccc(NC(=O)CN2CC3(CC3)c3cc(Br)ccc3C2=O)c(Cl)c1 [Example 183, 2-(6-bromo-1-oxospiro[3H-isoquinoline-4,1′-cyclopropane]-2-yl)-N-(2-chloro-4-methylsulfonylphenyl)acetamide] | < 10 | 8.08
2 | O=C(CN1C[C@@]2(C[C@@H]2F)c2c(ccc(Br)c2F)C1=O)Nc1ncc(C(F)(F)F)cn1 (single isomer, unassigned) [Example 226, 2-[(2′s,4r)-6-bromo-2′,5-difluoro-1-oxospiro[3H-isoquinoline-4,1′-cyclopropane]-2-yl]-N-[5-(trifluoromethyl)pyrimidin-2-yl]acetamide] | < 10 | 0.031
3 | CC(C)n1cnc(NC(=O)CN2CC3(CC3)c3cc(Br)ccc3C2=O)n1 [Example 421, 2-(6-bromo-1-oxospiro[3H-isoquinoline-4,1′-cyclopropane]-2-yl)-N-(1-propan-2-yl-1,2,4-triazol-3-yl)acetamide] |  | 2.73
4 | O=C(CN1CC2(CC2)c2cc(Br)ccc2C1=O)Nc1nccc(=O)[nH]1 [Example 214, 2-(6-bromo-1-oxospiro[3H-isoquinoline-4,1′-cyclopropane]-2-yl)-N-(6-oxo-1H-pyrimidin-2-yl)acetamide] | < 10 | 7.5
5 | O=C(CN1CC2(CC2)c2cc(Br)ccc2C1=O)N[C@@H]1C[C@H]2CC[C@@H]1O2 (stereo in doubt) [Example 17, 2-(6-bromo-1-oxospiro[3H-isoquinoline-4,1′-cyclopropane]-2-yl)-N-[(1S,2R,4R)-7-oxabicyclo[2.2.1]heptan-2-yl]acetamide] | < 10 | 4.19
6 | C[C@@H](F)[C@H]1CN(CC(=O)Nc2ncc(F)cn2)C(=O)c2ccc(Br)cc21 [Example 294, 2-[(4r)-6-bromo-4-[(1r)-1-fluoroethyl]-1-oxo-3,4-dihydroisoquinolin-2-yl]-N-(5-fluoropyrimidin-2-yl)acetamide] | < 10 | 0.203
7 | CC1(O)CC(NC(=O)CN2C[C@]3(C[C@H]3F)c3cc(Br)ccc3C2=O)C1 (stereo partly drawn) [Example 321, N-(cis-3-hydroxy-3-methylcyclobutyl)-2-[(2′R,4S)-6-bromo-2′-fluoro-1-oxospiro[3H-isoquinoline-4,1′-cyclopropane]-2-yl]acetamide] |  | 0.009
8 | O=C(CN1CC2(CC2)c2cc(Br)ccc2C1=O)Nc1ccc2ccccc2n1 [Example 198, 2-(6-bromo-1-oxospiro[3H-isoquinoline-4,1′-cyclopropane]-2-yl)-N-quinolin-2-ylacetamide] | < 10 | 1.5
9 | O=C(CN1CC2(CC2)c2cc(Br)ccc2C1=O)Nc1nccc2cccnc12 [Example 349, 2-(6-bromo-1-oxospiro[3H-isoquinoline-4,1′-cyclopropane]-2-yl)-N-(1,7-naphthyridin-8-yl)acetamide] |  | 4.76
10 | N#Cc1cnc(NC(=O)CN2C[C@]3(C[C@H]3F)c3cc(Br)ccc3C2=O)nc1 [Example 272] | < 10 | 0.014
11 | O=C(CN1CC2(CC2)c2cc(Br)ccc2C1=O)Nc1nn2ccccc2c1F [Example 403, 2-(6-bromo-1-oxospiro[3H-isoquinoline-4,1′-cyclopropane]-2-yl)-N-(3-fluoropyrazolo[1,5-a]pyridin-2-yl)acetamide] |  | 2.32
12 | CS(=O)(=O)NCCNC(=O)CN1CC2(CC2)c2cc(Br)ccc2C1=O [Example 137, 2-(6-bromo-1-oxospiro[3H-isoquinoline-4,1′-cyclopropane]-2-yl)-N-[2-(methanesulfonamido)ethyl]acetamide] | > 15 | 21.9
13 | O=C(CN1CC2(CC2)c2c(ccc(Br)c2F)C1=O)Nc1ncccn1 [Example 39, 2-(6-bromo-5-fluoro-1-oxo-spiro[3H-isoquinoline-4,1′-cyclopropane]-2-yl)-N-(pyrimidin-2-yl)acetamide] | < 10 | 0.09
14 | Cn1cc2nc(NC(=O)CN3CC4(CC4)c4cc(Br)ccc4C3=O)ccc2n1 [Example 190, 2-(6-bromo-1-oxospiro[3H-isoquinoline-4,1′-cyclopropane]-2-yl)-N-(2-methylpyrazolo[4,3-b]pyridin-5-yl)acetamide] | < 10 | 0.691
15 | CN(Cc1cnn(C)c1)C(=O)CN1CC2(CC2)c2cc(Br)ccc2C1=O [Example 123, 2-(6-bromo-1-oxospiro[3H-isoquinoline-4,1′-cyclopropane]-2-yl)-N-methyl-N-[(1-methylpyrazol-4-yl)methyl]acetamide] | > 15 | 34.9
16 | O=C(CN1CC2(CC2)c2c(ccc(Cl)c2F)C1=O)Nc1ncc(F)cn1 [Example 98, 2-(6-chloro-5-fluoro-1-oxospiro[3H-isoquinoline-4,1′-cyclopropane]-2-yl)-N-(5-fluoropyrimidin-2-yl)acetamide] | < 10 | 0.349
17 | Cc1cncc(NC(=O)CN2CC3(CC3)c3cc(Br)ccc3C2=O)n1 [Example 171, 2-(6-bromo-1-oxospiro[3H-isoquinoline-4,1′-cyclopropane]-2-yl)-N-(6-methylpyrazin-2-yl)acetamide] | 10 to 15 | 11
18 | COCCn1cc(NC(=O)CN2CC3(CC3)c3cc(Br)ccc3C2=O)cn1 [Example 138, 2-(6-bromo-1-oxospiro[3H-isoquinoline-4,1′-cyclopropane]-2-yl)-N-[1-(2-methoxyethyl)pyrazol-4-yl]acetamide] | > 15 | 20.5
19 | Cn1cc(NC(=O)CN2CC3(CC3)c3cc(Br)ccc3C2=O)ncc1=O [Example 337, 2-(6-bromo-1-oxospiro[3H-isoquinoline-4,1′-cyclopropane]-2-yl)-N-(4-methyl-5-oxopyrazin-2-yl)acetamide] |  | 7.47
20 | O=C1c2ccc(Br)cc2C2(CC2)CN1CC(=O)N1CCc2cccnc21 [Example 158, 6-bromo-2-[2-(2,3-dihydropyrrolo[2,3-b]pyridin-1-yl)-2-oxoethyl]spiro[3H-isoquinoline-4,1′-cyclopropane]-1-one] | < 10 | 5.9
21 | O=C(CN1CC2(CC2)c2c(ccc(Br)c2Cl)C1=O)Nc1ncc(F)cn1 [Example 83, 2-(6-bromo-5-chloro-1-oxospiro[3H-isoquinoline-4,1′-cyclopropane]-2-yl)-N-(5-fluoropyrimidin-2-yl)acetamide] | < 10 | 0.521
22 | O=C(CN1CC2(CC2)c2nc(C(F)(F)F)ccc2C1=O)Nc1ncccn1 [Example 31, 2-[5-oxo-2-(trifluoromethyl)spiro[7H-1,6-naphthyridine-8,1′-cyclopropane]-6-yl]-N-pyrimidin-2-ylacetamide] | < 10 | 2.41
23 | Cn1nc(NC(=O)CN2CC3(CC3)c3cc(Br)ccc3C2=O)ccc1=O [Example 335, 2-(6-bromo-1-oxospiro[3H-isoquinoline-4,1′-cyclopropane]-2-yl)-N-(1-methyl-6-oxopyridazin-3-yl)acetamide] |  | 2.08
24 | O=C(CN1CC2(CC2)c2cc(Br)ccc2C1=O)Nc1ccc2cccnc2n1 [Example 199, 2-(6-bromo-1-oxospiro[3H-isoquinoline-4,1′-cyclopropane]-2-yl)-N-(1,8-naphthyridin-2-yl)acetamide] | < 10 | 1.37
25 | N#Cc1cnc(NC(=O)CN2CC3(CC3)c3cc(Br)ccc3C2=O)c(F)c1 [Example 7] | < 10 | 0.35
